Test results published in PMC4669722, “Antitumour potential of BPT: a dual inhibitor of cdk4 and tubulin polymerization” (Cell Death & Disease, 2015).
Read-outs that look alike come from different tables or passages of the source.

What was measured:
[1] = molecular target: EGFR (Homo sapiens, UniProt P00533); experiment: Kinase profiling (Millipore), EGFR; format: biochemical
Procedure: (§1) The in vitro kinase assays for testing against Cdk4-cyclin D1, Cdk2-cyclin A, Cdk1-cyclin B1 and Cdk9-cyclin T1 were performed in-house. The methodology and results have been reported previously.[20], [30], [31], [32], [45] The kinase profiling for 58 representative kinases was carrried out commercially at Millipore Bioscience Division, Livingston, UK.

[2] = test system: NCI-H1299 cells; experiment: Flow cytometric cell cycle analysis, NCI-H1299; format: cell-based, human; details: NCI-H1299, IC50 concentration, 24 h
Procedure: The untreated (control) and treated (with test compounds) cells were harvested by trypsinization, washed once with PBS and then fixed in 70% chilled (−20 °C) ethanol for minimum 1 h. After the fixation step, cells were centrifuged for 5 min at 3000 × g at room temperature, and the pellet was suspended in PBS containing 50 μg/ml propidium iodide (Sigma-Aldrich, Dorset, UK; cat. no. P-4170) and 0.5 mg/ml DNase-free ribonuclease (Sigma-Aldrich; cat. no. R-5503). The cells were stained for 1 h in the dark at 4 °C. Cell cycle analysis was performed on the Beckman Coulter (Epics Altra) fluorescence-activated cell sorter (Beckman Coulter UK Ltd, Buckinghamshire, UK). To gate all the events that represent single cells, and not cell doublets or cell clumps, the following analyses were performed on the samples. Cytograms of propidium iodide fluorescence peak signal versus integrated fluorescence or the linear signal were plotted. All data points on the straight line were isolated in a single gate and the gated data was further used for plotting a histogram that represents a complete cell cycle. The total number of events was not allowed to exceed 200 events per s. Data acquisition was stopped after a minimum of 10 000 events had been collected.

[3] = test system: p53+ A549 and LS174T cells; experiment: Western blot of cell cycle proteins in p53+ cells; format: cell-based, human; details: IC50 concentration, 24 h
Procedure: (§2) A549, LS174T and MiaPaCa cells were seeded in 25 cm^2 tissue culture flasks in the complete growth medium. […] Cells were harvested by trypsinization, washed in ice-cold PBS and then lysed in buffer (Sigma-Aldrich; cat. no. C-2978) containing protease inhibitor cocktail (Sigma-Aldrich; cat. no. P8340). The lysates were centrifuged at 14 000 r.p.m. (revolutions per minute) for 10 min at 4 °C and the total protein concentrations were estimated in the clear supernatants using the Bradford method. Equal amounts of protein (40 μg) were loaded and electrophoresed on 10% SDS-polyacrylamide gels and blotted on Immobilon-P Transfer Membrane (Millipore; cat. no.IPVH20200). The blots were probed with respective primary antibodies (at 4 °C, overnight) at the following dilutions: cdc2 (New England Biolabs, Hitchin, UK; cat. no. 9110) at 1 : 1000 to detect Cdk1; cyclin B1 (CRUK, London, UK; cat. no. V152) at 1 : 1500 dilution to detect cyclin B1; Pab 1801 (Santa Cruz Biotechnology, Heidelberg, Germany; cat. no. sc-98) at 1 : 500 dilution to detect p53; N-20 (Santa Cruz Biotechnology; cat. no. sc-469) at 1 : 500 dilution to detect p21; C-19 (Santa Cruz Biotechnology; cat. no. sc-528) at 1 : 250 dilution to detect p27; AC-40 (Sigma-Aldrich; cat. no. A4700) at 1 : 2000 dilution to detect actin. Appropriate secondary antibodies conjugated with horseradish peroxidase were used and the protein bands were visualized by chemiluminescence using the ECL Kit (Santa Cruz Biotechnology; cat. no. sc-2048).

[4] = molecular target: Cdk6-cyclin D1 (Homo sapiens, UniProt Q00534); experiment: Kinase profiling (Millipore), Cdk6-cyclin D1; format: biochemical
Procedure: as §1

[5] = test system: MiaPaCa (pancreatic; p53His273mut, pRb+); experiment: Cell proliferation (MTT) assay, MiaPaCa; format: cell-based; details: Homo sapiens, MIA PaCa-2, 48 h, read-out: IC50 cell growth inhibition, MiaPaCa
Procedure: (§3) All 10 human cancer cell lines were maintained at 37 °C in 5% CO2 in RPMI-1640 medium, supplemented with 10% foetal calf serum and 100 μg/ml normocin. The 10 cancer cell lines used for screening were all obtained from ATCC (Manassas, VA, USA); they were the NSCLC (a form of cancer that is resistant to chemotherapy) lines: NCI-H460 (pRb^+, p53^+), A549 (pRb^+, p53^+), Calu-1 (pRb^+, p53-null), NCI-H1299 (pRb^+, p53-null), NCI-H358 (pRb-null, p53-null); the colon cancer line LS174T (pRb^+, p53^+); the prostate cancer line PC-3 (pRb^+, p53-null); the pancreatic cancer line MiaPaca (pRb^+, p53-mutant). The genotypes within brackets indicate the status of the tumour suppressor proteins pRb and p53. The mouse embryonic normal hepatic cell line (BNL CL2) and its SV40 large T-antigen-transformed counterpart cell line (BNL SV A.8) were also purchased from ATCC. The large T-antigen inactivates the tumour suppressor proteins p53 and pRb. The detailed procedure of cell proliferation (MTT) assay and IC50 determination was described previously.[32]

[6] = molecular target: Plk3 (Homo sapiens, UniProt Q9H4B4); experiment: Kinase profiling (Millipore), Plk3; format: biochemical
Procedure: as §1

[7] = molecular target: Cdk4-cyclin D1 (Homo sapiens, UniProt P11802); experiment: In vitro kinase assay, Cdk4-cyclin D1 (in-house); format: biochemical
Procedure: as §1

[8] = test system: BNL CL2 (mouse normal hepatic cells); experiment: Cell proliferation (MTT) assay, BNL CL2; format: cell-based
Procedure: as §3

[9] = test system: NCI-H1299 (NSCLC; p53 null, pRb+); experiment: Cell proliferation (MTT) assay, NCI-H1299; format: cell-based; details: Homo sapiens, 48 h, read-out: IC50 cell growth inhibition, NCI-H1299
Procedure: as §3

[10] = test system: MIAPaCa cells; experiment: Western blot of cell cycle proteins in mutant p53 cells; format: cell-based, human; details: data not shown
Procedure: as §2, with “Appropriate secondary antibodies conjugated with horseradish peroxidase were used and the protein bands were visualized by chemiluminescence using the ECL Kit (Santa Cruz Biotechnology; cat. no. sc-2048).” left out

[11] = BNL CL2, concentration used in long-term survival assay (Fig. S3)

Cdk4-cyclin D1, sequence (P11802 whole entry): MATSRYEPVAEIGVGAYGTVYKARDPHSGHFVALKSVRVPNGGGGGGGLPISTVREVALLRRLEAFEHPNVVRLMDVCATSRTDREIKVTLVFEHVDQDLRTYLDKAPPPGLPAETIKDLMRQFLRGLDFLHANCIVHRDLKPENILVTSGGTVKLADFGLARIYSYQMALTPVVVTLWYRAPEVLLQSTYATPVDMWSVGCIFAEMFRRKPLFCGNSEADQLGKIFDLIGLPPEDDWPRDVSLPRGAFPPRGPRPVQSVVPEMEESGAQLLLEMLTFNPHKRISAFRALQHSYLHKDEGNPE
Cdk4-cyclin D1, sequence (P24385 whole entry partner): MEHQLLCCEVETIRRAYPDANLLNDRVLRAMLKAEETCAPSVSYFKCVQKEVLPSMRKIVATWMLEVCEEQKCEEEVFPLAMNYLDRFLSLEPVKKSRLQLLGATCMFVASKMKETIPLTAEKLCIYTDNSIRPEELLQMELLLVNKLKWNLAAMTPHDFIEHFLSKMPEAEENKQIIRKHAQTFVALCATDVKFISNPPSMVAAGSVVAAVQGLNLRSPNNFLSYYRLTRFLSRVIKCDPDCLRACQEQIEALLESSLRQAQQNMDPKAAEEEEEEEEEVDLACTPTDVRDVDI
EGFR, sequence (P00533 25-1210): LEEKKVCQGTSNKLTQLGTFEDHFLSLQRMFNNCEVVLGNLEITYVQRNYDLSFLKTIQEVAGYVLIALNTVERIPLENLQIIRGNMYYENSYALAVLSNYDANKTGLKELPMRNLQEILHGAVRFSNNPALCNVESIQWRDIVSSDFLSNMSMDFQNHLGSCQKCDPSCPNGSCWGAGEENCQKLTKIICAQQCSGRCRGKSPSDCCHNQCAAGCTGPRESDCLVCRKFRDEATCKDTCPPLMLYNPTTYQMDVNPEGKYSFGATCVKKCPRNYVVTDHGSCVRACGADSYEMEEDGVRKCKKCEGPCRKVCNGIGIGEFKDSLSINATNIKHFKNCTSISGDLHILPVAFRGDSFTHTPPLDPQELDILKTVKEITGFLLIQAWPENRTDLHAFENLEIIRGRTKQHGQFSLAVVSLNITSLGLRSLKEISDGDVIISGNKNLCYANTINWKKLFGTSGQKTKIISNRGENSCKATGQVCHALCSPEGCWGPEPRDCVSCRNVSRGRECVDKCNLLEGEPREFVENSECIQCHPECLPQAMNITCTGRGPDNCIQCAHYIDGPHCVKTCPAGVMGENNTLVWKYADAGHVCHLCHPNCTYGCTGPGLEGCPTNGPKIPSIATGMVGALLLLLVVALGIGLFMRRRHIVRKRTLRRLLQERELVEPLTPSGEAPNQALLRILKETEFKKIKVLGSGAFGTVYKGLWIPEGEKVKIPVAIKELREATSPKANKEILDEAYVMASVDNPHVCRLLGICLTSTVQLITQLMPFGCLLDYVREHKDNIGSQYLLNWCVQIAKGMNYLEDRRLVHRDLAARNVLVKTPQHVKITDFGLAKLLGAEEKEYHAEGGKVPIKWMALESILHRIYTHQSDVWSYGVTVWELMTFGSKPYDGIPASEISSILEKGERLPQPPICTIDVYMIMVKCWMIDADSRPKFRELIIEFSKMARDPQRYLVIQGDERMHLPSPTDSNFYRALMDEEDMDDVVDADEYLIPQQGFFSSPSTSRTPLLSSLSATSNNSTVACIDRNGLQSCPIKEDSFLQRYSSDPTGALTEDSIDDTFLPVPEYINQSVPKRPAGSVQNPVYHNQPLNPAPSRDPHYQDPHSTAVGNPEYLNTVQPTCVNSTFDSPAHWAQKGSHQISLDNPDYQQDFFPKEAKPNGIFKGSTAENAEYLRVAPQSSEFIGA
Plk3, sequence (Q9H4B4 whole entry): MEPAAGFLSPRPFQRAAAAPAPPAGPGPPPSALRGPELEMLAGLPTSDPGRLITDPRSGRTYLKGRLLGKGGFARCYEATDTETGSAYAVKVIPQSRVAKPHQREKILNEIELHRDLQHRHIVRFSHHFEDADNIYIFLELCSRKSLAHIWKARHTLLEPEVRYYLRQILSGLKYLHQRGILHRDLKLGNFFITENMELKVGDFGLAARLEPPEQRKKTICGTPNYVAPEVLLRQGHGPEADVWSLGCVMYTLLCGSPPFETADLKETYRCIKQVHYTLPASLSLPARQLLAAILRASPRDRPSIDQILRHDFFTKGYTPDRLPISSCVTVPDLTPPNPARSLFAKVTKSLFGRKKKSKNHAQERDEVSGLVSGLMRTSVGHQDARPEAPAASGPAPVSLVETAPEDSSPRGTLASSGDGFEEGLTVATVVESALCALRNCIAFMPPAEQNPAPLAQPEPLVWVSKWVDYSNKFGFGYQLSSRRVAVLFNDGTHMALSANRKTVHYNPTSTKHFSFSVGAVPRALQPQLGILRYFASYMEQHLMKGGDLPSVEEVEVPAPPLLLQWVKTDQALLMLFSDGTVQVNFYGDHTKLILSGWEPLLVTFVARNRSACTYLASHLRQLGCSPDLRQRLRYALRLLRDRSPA
Cdk6-cyclin D1, sequence (P24385 whole entry): as the sequence (P24385 whole entry partner) above
Cdk6-cyclin D1, sequence (Q00534 whole entry): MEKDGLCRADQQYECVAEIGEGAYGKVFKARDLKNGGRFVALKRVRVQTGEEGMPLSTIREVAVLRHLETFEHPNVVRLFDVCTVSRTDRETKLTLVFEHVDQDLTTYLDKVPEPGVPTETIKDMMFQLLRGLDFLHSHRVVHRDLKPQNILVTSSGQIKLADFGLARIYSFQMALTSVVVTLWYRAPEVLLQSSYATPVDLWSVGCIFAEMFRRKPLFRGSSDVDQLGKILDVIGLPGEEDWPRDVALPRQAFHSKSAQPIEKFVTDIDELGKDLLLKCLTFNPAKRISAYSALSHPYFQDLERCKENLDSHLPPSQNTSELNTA

**Q.** With O=C(c1ccccc1-c1ccccc1)N1CCc2c([nH]c3ccccc23)C1 [BPT, 2-(biphenyl-2-carbonyl)-2,3,4,9-tetrahydro-1H-pyrido[3,4-b]indole] as the compound, how does the IC50 [1] read?
**A.** > 10000 nM

**Q.** And the “cells in G2/M” value [2]?
**A.** 50%

**Q.** And the “induction of p53” value [3]?
**A.** more than 10 fold

**Q.** And the “levels of p21CIP1/WAF1 (p21)” value [3]?
**A.** increase

**Q.** What about the “levels of p27KIP1 (p27)” value [3] of the same compound?
**A.** elevated

**Q.** What about the “Cdk1 and cyclin B1 protein levels” value ([3]; versus untreated control) of the same compound?
**A.** downregulated

**Q.** What about the IC50 [4] of the same compound?
**A.** > 10000 nM

**Q.** What about the IC50 [5] of the same compound?
**A.** 800 nM

**Q.** And the IC50 [6]?
**A.** > 10000 nM

**Q.** And the “selectivity for Cdk4-cyclin D1 with respect to Cdk2-cyclin A” value [7]?
**A.** 83 fold

**Q.** And the IC50 ([7]; three independent experiments, read-out: IC50 (mean±S.D.), Cdk4-cyclin D1)?
**A.** 10000 ± 1200 nM

**Q.** What about the IC30 [8, 11] of the same compound?
**A.** 400 nM

**Q.** What about the IC70 [8, 11] of the same compound?
**A.** 900 nM

**Q.** What about the IC50 ([8]; Mus musculus, BNL CL.2, 48 h, MTT, read-out: IC50 cell growth inhibition, BNL CL2) of the same compound?
**A.** 720 nM

**Q.** And the IC20 ([8]; Mus musculus, BNL CL.2, BNL CL2, concentration used in long-term survival assay (Fig. S3))?
**A.** 250 nM

**Q.** And the IC50 ([8]; Mus musculus, BNL CL.2, BNL CL2, concentration used in long-term survival assay (Fig. S3), read-out: IC50)?
**A.** 600 nM

**Q.** What about the IC50 [9] of the same compound?
**A.** 900 nM

**Q.** What about the “cyclin B1 and Cdk1 levels” value [10] of the same compound?
**A.** elevated

**Q.** And the “p53, p21 and p27 levels” value [10]?
**A.** remained unchanged
